In patent US20130136827A1, “Method and Composition for Increasing The Proportion of Dietary Ingredients That Are Resistant To Degradation by Ruminal Microorganisms” (priority 2011, published 2013):

Assays:
[1] = system: microorganisms within the rumen ecosystem; conditions: Montgomery et al., J Anim Sci. 86(3):640-50; cited from earlier work
[2] = system: ruminal microbes; experiment: In situ ruminal incubation of samples in Dacron bags for 24 hours
Excerpt: The in situ procedure utilizes small in situ bags made of a nitrogen-free synthetic polyester fabric (Dacron®; Ankom Technology, Mecedon, N.Y.) that has a 50 μm pore size. The pores are sufficiently small such that when feed materials are placed into the bag the contents are retained. The pore size also is large enough to allow for entry of microorganisms into the bag when placed into the rumen, thus exposing the contents to the degradative actions of ruminal microbes. Disappearance of feed particles from the bag is presumed to be due to microbial fermentative activity whilst the bag and its contents are suspended within the rumen environment. In situ assays provide useful information regarding the susceptibility of feeds to microbial digestion within the rumen.
The test procedure consisted of adding 12 g of sample (as is) to Dacron bags, which then were heat sealed and subsequently placed into the rumen and allowed to incubate for 24 hours. Bags then were removed from the rumen, dried and weighed to determine disappearance of dry matter. Concentrations of protein, total fatty acids, and fatty acid profile were determined for the residue from each sample. Samples were prepared in duplicate within each animal, along with blank bags for correction, and six animals were used. Three cattle were fed a high-concentrate diet and 3 were fed a high-forage, i.e., low concentrate diet.
These values were used to calculate the extent of dry matter and nutrient disappearance during the in situ digestion procedure.

Row | SMILES | dietary ALA available for absorption in the postruminal digestive tract [1] | ruminally degraded / disappearance of dry matter, over Low and High concentrate groups ([2]; 24-hour period of ruminal incubation, text summary of Table VII) [%] | In situ dry matter disappearance (%), Mean ([2]; 24 hours of ruminal incubation, average of Low and High concentrate groups) [%] | In situ dry matter disappearance (%), High Concentrate ([2]; 24 hours of ruminal incubation, cattle on high-concentrate diet) [%] | In situ dry matter disappearance (%), Low Concentrate ([2]; 24 hours of ruminal incubation, cattle on high-forage/low concentrate diet) [%]
1 | CC/C=C\C/C=C\C/C=C\CCCCCCCC(=O)O [ALA, Alpha-linolenic acid] | less than 5% |  |  |  | 
2 | Cl.NCCCC[C@H](N)C(=O)O [Lysine, lysine hydrochloride] |  | ≥ 99.83 | 99.86 | 99.83 | 99.88
